# Results reported in patent US8158621B2, “Methods of treating or preventing autoimmune diseases with 2,4-pyrimidinediamine compounds” (Rigel Pharmaceuticals, Inc., priority 2002, dated 2012).
# pIC50: −log10 of the molar value.
# Test system: Human Jurkat T-cells (clone N)
# Experiment: Jurkat T-cell activation (anti-TCR, CD69 upregulation)
# Format: cell-based
# Conditions: not given
# Protocol: The screening process took place over three days.
# On the first day of the screen, cultured cells were spun down on a centrifuge (1000 rpm, 5 minutes) and resuspended at 3.0×10^5 cells/ml in RPMI+5% FBS. On the second day of the screen, cells were spun down at 1000 rpm for 5 minutes and resuspended in RPMI+5% FBS at 1.3×10^5 cells/ml. 85 μl of this cell suspension were added to the wells of U-bottom 96 well plates (Corning) 85 μl of compound or diluted RPMI+5% FBS (as a control) only was added to each well and incubated at 37° C. for 1 hour. The cells were then stimulated with anti-TCR (C305) at: 500 ng/ml by adding a 8× solution in 25 μl to the plated cells. The cells were then incubated at 37° C. for 20 hrs.
# On the third day of the screen, the plates were spun at 2500 RPM for 1 minute on a Beckman GS-6R centrifuge, and the medium was then removed. 50 μl staining solution (1:100 dilution of anti-CD69-APC antibody (Becton Dickenson) in PBS+2% FBS) was then added to each well, followed by incubation of the plates 4 degrees for 20 minutes in the dark. 150 μl of wash buffer (PBS+2% FBS) was then added to each well, and the plates were spun at 3000 RPM for 1 minute. The supernatant was again removed, and the pellet was resuspended by vortexing gently. 75 μl of PBS+2% FBS +Cytofix (1:4 dilution) was then added, the plates gently vortexed and wrap in aluminum foil. Cells from the plates were read using a flow cytometer coupled to an automated liquid handling system.
# Varied concentrations of compound were compared to solvent only to determine the inhibition of T-cell activation IC50 of each compound.
row,SMILES,pIC50
1,CC(=O)N(C(C)=O)c1cccc(N(C(C)=O)c2ncc(F)c(N(C(C)=O)c3cccc(N(C(C)=O)C(C)=O)c3)n2)c1 [Compound R950247],< 5.00
2,CNC(=O)Cn1ncc2cc(Nc3ncc(F)c(Nc4ccc5c(c4)OCCO5)n3)ccc21 [Compound R935240],5.57
3,Fc1cnc(Nc2cccc(NCCOCc3ccccc3)c2)nc1Nc1cccc(NCCOCc2ccccc2)c1 [Compound R950174],< 5.00
4,Cn1nc(I)c2cc(Nc3ncc(F)c(Nc4ccc(I)c(O)c4I)n3)ccc21 [Compound R935221],< 5.00
5,C=CCNC(=O)Nc1c(Nc2ccc(OCC(=O)OCC)cc2)nc(Nc2ccc(OCC(=O)OCC)cc2)nc1C(=O)OCC [Compound R926585],< 5.00
6,CCOC(=O)CNC(=O)Oc1cccc(Nc2nc(Nc3cccc(OCC(=O)NC)c3)ncc2F)c1 [Compound R926918],5.33
7,CC1(C)Oc2cc(Nc3nc(Cl)ncc3F)cnc2NC1=O [Compound R940344],5.11
8,O=C1Nc2cc(Nc3nc(Cl)ncc3F)ccc2OC1(F)F [Compound R940342],5.29
9,CCOC(=O)COc1ccc(Nc2ncc(F)c(Nc3ccc(OCC(=O)OCC)c(Cl)c3)n2)cc1Cl [Compound R926676],< 5.00
10,Nc1cccc(Nc2nc(Nc3cccc(Nc4ncc(F)c(Nc5cccc(N)c5)n4)c3)ncc2F)c1 [Compound R950137],5.23

# Next, values leading:
row,pIC50,SMILES
1,< 5.00,CCOC(=O)COc1cccc(Nc2ncc(F)c(Nc3ccc(O)c(C(=O)OC)c3)n2)c1 [Compound R950293]
2,4.86,CNC(=O)COc1cccc(Nc2ncc(F)c(Nc3ccc4c(c3)OCC(=O)N4)n2)c1 [Compound R908700]
3,5.22,NC(=O)COc1ccc(Nc2nc(Nc3cccc(O)c3)ncc2F)cc1 [Compound R945063]
4,5.74,CNC(=O)COc1cccc(Nc2ncc(F)c(Nc3ccc(OC(C)C)cc3)n2)c1 [Compound R926730]
5,5.24,CNC(=O)COc1cccc(Nc2ncc(F)c(Nc3ccc4c(c3)C(=NOC)CCO4)n2)c1 [Compound R950356]
6,6.04,OCCn1ncc2cc(Nc3ncc(F)c(Nc4cccc(O)c4)n3)ccc21 [Compound R935256]
7,5.87,OCCCn1ncc2ccc(Nc3ncc(F)c(Nc4cccc(O)c4)n3)cc21 [Compound R935293]
8,4.98,Oc1cccc(Nc2nc(Nc3ccc(OCc4nnn[nH]4)cc3)ncc2C(F)(F)F)c1 [Compound R920846]
9,5.25,CNC(=O)COc1cccc(Nc2ncc(F)c(Nc3ccc(C(C)(C)C)cc3)n2)c1 [Compound R926714]
10,5.57,O=C(COc1cccc(Nc2ncc(F)c(Nc3cccc(O)c3)n2)c1)NCCO [Compound R926506]
11,5.14,CNC(=O)COc1cccc(Nc2ncc(F)c(Nc3ccc(F)c(C)c3)n2)c1 [Compound R926923]
12,5.21,CNC(=O)COc1cccc(Nc2ncc(F)c(Nc3ccc(C)c(C(F)(F)F)c3)n2)c1 [Compound R926922]
13,5.41,CCOC(=O)CNc1cccc(Nc2ncc(F)c(Nc3cccc(O)c3)n2)c1 [Compound R950216]

# Same assay, conditions: Homo sapiens, Jurkat
row,SMILES,pIC50
1,CC(C)c1cccc(Nc2ncc(F)c(Nc3cccc(C(C)C)c3)n2)c1 [Compound R940297],< 5.00
2,CC(C)c1ccc(O)cc1Nc1ncc(F)c(Nc2cc(O)ccc2C(C)C)n1 [Compound R935077],< 5.00
3,Fc1cnc(NCc2ccccc2)nc1NCc1ccccc1 [Compound R925772],< 5.00
4,COCCOc1cccc(Nc2ncc(F)c(Nc3cccc(OCCOC)c3)n2)c1 [Compound R935076],< 5.00
5,O=c1ccc2cc(Nc3ncc(F)c(Nc4ccc5oc(=O)ccc5c4)n3)ccc2o1 [Compound R926617],< 5.00

# Second part, the molecule after the results:
row,pIC50,SMILES
1,5.47,CN1C(=O)COc2ccc(Nc3nc(Nc4cccc(O)c4)ncc3F)cc21 [Compound R908709]
2,< 5.00,Oc1cccc(Nc2ncc(F)c(Nc3ccc4ncccc4c3)n2)c1 [Compound R927019]
3,< 5.00,CCOC(=O)c1cccc(Nc2ncc(F)c(Nc3ccc4c(c3)OCCO4)n2)c1 [Compound R925745]
